Consider twelve compounds from ChEMBL document CHEMBL1201862, “PubChem BioAssay data set” (2004).

Among the test systems are UO-31; NCI-H460; SR; KM12; NCI-H522; UACC-257; OVCAR-8; HT-29; IGROV-1; A498; K562; RPMI-8226; HOP-62; PC-3; RXF 393; OVCAR-5; SK-OV-3; SK-MEL-2; MDA-N.
Common to all, as to test: NCI tumour cell line growth inhibition, 48 h

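Five concentrations, 48 hours, 96-well plates. At the GI50, growth is halved.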 Activity calls are given as the source filed them. Cut-off read from the data, not from the text of the source: active = GI50 up to about 1.1 µM and inactive = higher. Where only a bound is given, the exact number is not on record here.

In the case of `CCOC(=O)C1CCC(=O)N1C(=O)c1ccccc1` (stereo not drawn), the GI50 with UO-31, with NCI-H460, with SR, in the assay with KM12, in the assay with NCI-H522 and in the assay with UACC-257 was > 100 µM (inactive) each time. In addition, the GI50 in the assay with OVCAR-8, in the assay on HT-29, in the assay with IGROV-1, in the assay with A498, in the assay on K562 and in the assay on RPMI-8226 was > 100 µM (inactive) in each case. Besides, the GI50 in the assay with HOP-62, with PC-3, in the assay on RXF 393 and in the assay on OVCAR-5 was > 100 µM (inactive) each time.
For the compound `COc1ccccc1NC(=S)N/N=C/c1c(C)n(C)n(-c2ccccc2)c1=O`, the GI50 is > 100 µM (inactive) with UO-31; > 100 µM (inactive) with NCI-H460; 51.6 µM (inactive) in the assay with SR; 31.8 µM (inactive) with KM12; > 100 µM (inactive) in the assay with UACC-257; 35.3 µM (inactive) with SK-OV-3. Further, the GI50 was 56.9 µM (inactive) in the assay on OVCAR-8; > 100 µM (inactive) in the assay with SK-MEL-2; > 100 µM (inactive) with HT-29; > 100 µM (inactive) with IGROV-1; 71 µM (inactive) in the assay on A498; > 100 µM (inactive) with K562. Also, the GI50 was > 100 µM (inactive) with RPMI-8226, 53.3 µM (inactive) in the assay on HOP-62, > 100 µM (inactive) with PC-3 and 34.9 µM (inactive) with RXF 393.
Consider `CN1C(NCCO)=NS(=O)(=O)c2ccccc21`, for which the GI50 with UO-31 is > 100 µM (inactive); in the assay with NCI-H460 it was > 100 µM (inactive); with SR it was 8.75 µM (inactive); in the assay with KM12, > 100 µM (inactive); in the assay on NCI-H522 it was > 100 µM (inactive); in the assay on UACC-257, > 100 µM (inactive). The GI50 in the assay on SK-OV-3, in the assay on OVCAR-8, in the assay with SK-MEL-2, in the assay on HT-29, in the assay with IGROV-1 and in the assay with A498 was > 100 µM (inactive) throughout. For the same compound, the GI50 in the assay with K562, in the assay with HOP-62, with PC-3, in the assay with RXF 393 and in the assay on OVCAR-5 was > 100 µM (inactive) throughout.
On to `COc1ccc(CCNC(=O)CCCCCO)cc1OC`, for which the GI50 in the assay with UO-31, in the assay with NCI-H460, in the assay with SR, in the assay with KM12, in the assay on NCI-H522 and in the assay on UACC-257 was > 100 µM (inactive) each time. Besides, the GI50 in the assay with SK-OV-3, with OVCAR-8, with SK-MEL-2, with HT-29, in the assay with IGROV-1 and in the assay with A498 was > 100 µM (inactive) in each case. The GI50 in the assay on K562, with RPMI-8226, with HOP-62, in the assay on PC-3, with RXF 393 and in the assay on OVCAR-5 was > 100 µM (inactive) throughout.
Turning to `O=C1CC(c2ccccc2)[S+]([O-])c2ccccc2N1` (stereo not drawn), the GI50 with UO-31 was > 100 µM (inactive); with NCI-H460 it was > 100 µM (inactive); with SR, 65.2 µM (inactive); in the assay on KM12 it was > 100 µM (inactive); in the assay with NCI-H522 it was > 100 µM (inactive); in the assay on UACC-257, 23.1 µM (inactive). Besides, the GI50 in the assay on SK-OV-3 is > 100 µM (inactive); in the assay on OVCAR-8 it was 61.7 µM (inactive); in the assay on HT-29, > 100 µM (inactive); in the assay on IGROV-1, > 100 µM (inactive); in the assay with K562, > 100 µM (inactive); in the assay on RPMI-8226, > 100 µM (inactive). The GI50 with HOP-62, with PC-3 and with OVCAR-5 was > 100 µM (inactive) in each case.
Take `Cc1ccc(S(=O)(=O)Nn2c(S)c(C#N)c(-c3ccc(Cl)cc3)c(C#N)c2=O)cc1`: the GI50 in the assay with UO-31 is 19.1 µM (inactive); in the assay with NCI-H460, 17 µM (inactive); in the assay on SR, 29.7 µM (inactive); in the assay with KM12, 36.2 µM (inactive); with NCI-H522, 16.6 µM (inactive); in the assay with UACC-257, 45.3 µM (inactive). In addition, the GI50 was 61 µM (inactive) in the assay on SK-OV-3; 22 µM (inactive) in the assay on OVCAR-8; 56.8 µM (inactive) in the assay with SK-MEL-2; 20.6 µM (inactive) in the assay on IGROV-1; 26.5 µM (inactive) in the assay on A498; 38.6 µM (inactive) with K562. Besides, the GI50 was 26.2 µM (inactive) in the assay with RPMI-8226, 24.4 µM (inactive) in the assay on PC-3, 32.3 µM (inactive) with RXF 393 and 50.1 µM (inactive) with OVCAR-5.
On to `N#Cc1sc2c(c1OC(=O)c1ccc(Cl)cc1Cl)c(=O)n(-c1ccccc1)c(=S)n2-c1ccccc1`, for which the GI50 in the assay on UO-31 is 0.13 µM (active); with NCI-H460, 33.3 µM (inactive); in the assay on SR, > 100 µM (inactive); with KM12, 24 µM (inactive); with NCI-H522 it was 1.12 µM (active); in the assay with UACC-257, 71.9 µM (inactive). Besides, the GI50 was 32.7 µM (inactive) with SK-OV-3; 19.9 µM (inactive) with OVCAR-8; 18.2 µM (inactive) in the assay with HT-29; 17 µM (inactive) with IGROV-1; 24.9 µM (inactive) with A498; 17.1 µM (inactive) with K562. Moreover, the GI50 was 31.7 µM (inactive) with RPMI-8226; 26.4 µM (inactive) with HOP-62; 25.4 µM (inactive) in the assay with PC-3; 19.8 µM (inactive) in the assay with RXF 393; 50.7 µM (inactive) in the assay with OVCAR-5.
For `O=C1CSC(c2ccccc2O)N1c1ccc(Oc2ccc(Cl)cc2)c(Cl)c1` (stereo not drawn), the GI50 with UO-31 was 5.94 µM (inactive); with NCI-H460, 19.4 µM (inactive); in the assay on SR, 14.3 µM (inactive); in the assay on KM12 it was 17.5 µM (inactive); in the assay with NCI-H522, 15.3 µM (inactive); with UACC-257, 26.2 µM (inactive). Moreover, the GI50 was 21 µM (inactive) in the assay on SK-OV-3; 25.5 µM (inactive) with OVCAR-8; 24.3 µM (inactive) in the assay with SK-MEL-2; 19.7 µM (inactive) in the assay with HT-29; 8.91 µM (inactive) in the assay on IGROV-1; 29.9 µM (inactive) in the assay with K562. Besides, the GI50 in the assay with RPMI-8226 was 19.8 µM (inactive); with HOP-62 it was 18.2 µM (inactive); with PC-3, 22.3 µM (inactive); in the assay with OVCAR-5, 21.6 µM (inactive).
`O=C(Nc1ccc(N2C(=O)CSC2c2cccs2)cc1)c1ccc(N2C(=O)CSC2c2cccs2)cc1` (stereo not drawn): the GI50 in the assay with UO-31 was > 100 µM (inactive); in the assay with NCI-H460 it was > 100 µM (inactive); in the assay on KM12, > 100 µM (inactive); with MDA-N, > 100 µM (inactive); in the assay on NCI-H522 it was 36.1 µM (inactive); in the assay on UACC-257 it was > 100 µM (inactive). The GI50 with SK-OV-3 was > 100 µM (inactive); in the assay on OVCAR-8, > 100 µM (inactive); in the assay with SK-MEL-2 it was > 100 µM (inactive); in the assay with HT-29, > 100 µM (inactive); in the assay with IGROV-1, > 100 µM (inactive); in the assay with K562 it was 56.2 µM (inactive). The GI50 was 95.3 µM (inactive) in the assay on HOP-62, > 100 µM (inactive) with PC-3, > 100 µM (inactive) in the assay on RXF 393 and > 100 µM (inactive) in the assay with OVCAR-5.
Turning to `Cc1ccnc(NC(=S)Nc2ccc([N+](=O)[O-])cc2)c1`, the GI50 is > 100 µM (inactive) in the assay with UO-31; 80.5 µM (inactive) in the assay with NCI-H460; > 100 µM (inactive) in the assay on SR; > 100 µM (inactive) with KM12; > 100 µM (inactive) in the assay with UACC-257; 37.9 µM (inactive) with SK-OV-3. Further, the GI50 was 35.5 µM (inactive) in the assay with OVCAR-8; > 100 µM (inactive) in the assay on SK-MEL-2; > 100 µM (inactive) in the assay with HT-29; 46.2 µM (inactive) in the assay with IGROV-1; > 100 µM (inactive) in the assay with K562; > 100 µM (inactive) in the assay on RPMI-8226. The figures for the GI50 in the assay on HOP-62, with PC-3 and in the assay on RXF 393 were 78 µM (inactive), > 100 µM (inactive) and > 100 µM (inactive), respectively.
For `OCC1OC(n2nc(-c3ccccc3)nc2-c2cnccn2)C(O)C1O` (stereo not drawn), the GI50 in the assay on UO-31, in the assay with NCI-H460, in the assay with KM12, with MDA-N, with NCI-H522 and in the assay with UACC-257 was > 100 µM (inactive) each time. Besides, the GI50 with SK-OV-3, in the assay on OVCAR-8, in the assay with HT-29, with IGROV-1, with K562 and in the assay with HOP-62 was > 100 µM (inactive) throughout. Moreover, the GI50 in the assay on PC-3 and with OVCAR-5 was > 100 µM (inactive) in each case.
Consider `O=C(CC(C(=O)c1ccsc1)c1cccs1)c1ccccc1` (stereo not drawn), for which the GI50 with UO-31 is 19.2 µM (inactive); with NCI-H460, 36.6 µM (inactive); with SR, 76.9 µM (inactive); in the assay with KM12 it was 59 µM (inactive); with MDA-N it was > 100 µM (inactive); in the assay on NCI-H522, 70.1 µM (inactive). Moreover, the GI50 was > 100 µM (inactive) in the assay with UACC-257; > 100 µM (inactive) in the assay with SK-OV-3; 89.1 µM (inactive) with OVCAR-8; 82.8 µM (inactive) in the assay with HT-29; > 100 µM (inactive) in the assay on IGROV-1; 29.9 µM (inactive) in the assay on A498. For the same compound, the GI50 was > 100 µM (inactive) in the assay with K562; > 100 µM (inactive) in the assay with RPMI-8226; > 100 µM (inactive) with HOP-62; 14 µM (inactive) in the assay on RXF 393; > 100 µM (inactive) with OVCAR-5.
